The numbers were not newly measured in patent US8895557B2, “Pharmaceutical formulations of ecteinascidin compounds” (Pharma Mar, S.A., Sociedad Unipersonal, priority 2004, dated 2014), which cites them from elsewhere.

The conditions of data set [1]: mannitol/phosphate lyophilised product reconstituted with 5 ml Water for Injection, ambient temperature.
The test system of data set [2] is sarcoma and breast and ovarian carcinoma. Conditions: phase I, patients with sarcoma and breast and ovarian carcinoma.
Data set [3] has as its system human tumour xenografts, including melanoma and ovarian and breast carcinoma. Particulars: human tumour xenografts in athymic mice. In general terms: Xenograft models place foreign cells or tissue in a host animal.

For the molecule `COc1cc2c(cc1O)CCN[C@]21CS[C@@H]2c3c(OC(C)=O)c(C)c4c(c3[C@H](COC1=O)N1C2C2c3c(cc(C)c(OC)c3O)C[C@@H]([C@@H]1O)N2C)OCO4` (stereo partly shown) [ET-743, Ecteinascidin 743], the aqueous solubility result was “limited aqueous solubility”. For the same molecule, the “time for which the reconstituted solution is stable” value in data set [1] is recorded as “up to 24 h”. Besides, the clinical responses entry in data set [2] is “promising responses were observed”. Moreover, the antineoplastic activity entry in data set [3] is recorded as “potent antineoplastic activity”.
